The series deals with DFP-induced status epilepticus. To be noted: rat, in vivo.

The structures appear in SMILES notation.

Turning to `Cc1ncc2n1-c1ccc(Cl)cc1C(c1ccccc1F)=NC2` [Midazolam, midazolam], the “effect on behavioral seizure scores induced by DFP” value is reported as “in-effective in reducing the behavioral seizure scores” and the mortality result is listed as “no mortality”.
`CCCC(CCC)C(=O)[O-].[Na+]` [sodium valproate]: the “termination of status epilepticus / EEG epileptiform activity” value is “intermittent spikes and seizure activity during the whole 5 h of EEG recording”.

The record behind these values is patent publication US20200030304A1 (priority 2017, published 2020).
